In the NIST ThermoML archive (doi:10.1021/je050389b):
Numbers after ± are expanded uncertainties.

Experiment: xn = mol fraction of the nth substance listed
Conditions: 100.5 kPa, Liquid

CC(=O)OCCC(C)C [3-methylbutyl ethanoate] + CCO
Conditions | mass density, 288.15 K [kg/m3] | mass density, 298.15 K [kg/m3] | mass density, 308.15 K [kg/m3] | mass density, 318.15 K [kg/m3] | viscosity, 288.15 K [mPa·s] | viscosity, 298.15 K [mPa·s] | viscosity, 308.15 K [mPa·s] | viscosity, 318.15 K [mPa·s]
x1 = 0.05 | 803.41 ± 0.23 | 794.64 ± 0.23 | 785.74 ± 0.24 | 776.69 ± 0.24 | 1.22 ± 0.018 | 1.011 ± 0.017 | 0.847 ± 0.015 | 0.716 ± 0.015
x1 = 0.1 | 811.89 ± 0.23 | 802.92 ± 0.23 | 793.84 ± 0.24 | 784.6 ± 0.24 | 1.133 ± 0.017 | 0.946 ± 0.016 | 0.799 ± 0.015 | 0.68 ± 0.015
x1 = 0.15 | 819.25 ± 0.23 | 810.13 ± 0.23 | 800.9 ± 0.24 | 791.5 ± 0.24 | 1.072 ± 0.017 | 0.902 ± 0.016 | 0.762 ± 0.015 | 0.651 ± 0.014
x1 = 0.2 | 825.81 ± 0.23 | 816.58 ± 0.23 | 807.21 ± 0.24 | 797.69 ± 0.24 | 1.031 ± 0.017 | 0.866 ± 0.016 | 0.735 ± 0.015 | 0.63 ± 0.014
x1 = 0.25 | 831.66 ± 0.23 | 822.31 ± 0.24 | 812.85 ± 0.24 | 803.22 ± 0.25 | 0.996 ± 0.016 | 0.841 ± 0.015 | 0.716 ± 0.015 | 0.615 ± 0.014
x1 = 0.3 | 836.85 ± 0.23 | 827.42 ± 0.24 | 817.86 ± 0.24 | 808.15 ± 0.25 | 0.968 ± 0.016 | 0.821 ± 0.015 | 0.701 ± 0.015 | 0.605 ± 0.014
x1 = 0.35 | 841.58 ± 0.24 | 832.08 ± 0.24 | 822.44 ± 0.25 | 812.65 ± 0.25 | 0.948 ± 0.016 | 0.805 ± 0.015 | 0.689 ± 0.015 | 0.596 ± 0.014
x1 = 0.4 | 845.81 ± 0.25 | 836.24 ± 0.25 | 826.53 ± 0.25 | 816.69 ± 0.26 | 0.934 ± 0.016 | 0.793 ± 0.015 | 0.68 ± 0.015 | 0.59 ± 0.014
x1 = 0.45 | 849.7 ± 0.25 | 840.07 ± 0.25 | 830.32 ± 0.26 | 820.42 ± 0.26 | 0.924 ± 0.016 | 0.786 ± 0.015 | 0.675 ± 0.015 | 0.586 ± 0.014
x1 = 0.5 | 853.26 ± 0.26 | 843.59 ± 0.26 | 833.79 ± 0.27 | 823.86 ± 0.27 | 0.916 ± 0.016 | 0.779 ± 0.015 | 0.671 ± 0.015 | 0.583 ± 0.014
x1 = 0.55 | 856.53 ± 0.27 | 846.82 ± 0.27 | 836.99 ± 0.27 | 827.03 ± 0.27 | 0.91 ± 0.016 | 0.776 ± 0.015 | 0.668 ± 0.015 | 0.582 ± 0.014
x1 = 0.6 | 859.57 ± 0.27 | 849.83 ± 0.28 | 839.97 ± 0.28 | 829.99 ± 0.28 | 0.907 ± 0.016 | 0.773 ± 0.015 | 0.667 ± 0.015 | 0.582 ± 0.014
x1 = 0.65 | 862.36 ± 0.28 | 852.58 ± 0.28 | 842.71 ± 0.29 | 832.72 ± 0.29 | 0.908 ± 0.016 | 0.773 ± 0.015 | 0.667 ± 0.015 | 0.584 ± 0.014
x1 = 0.7 | 865 ± 0.29 | 855.21 ± 0.29 | 845.33 ± 0.3 | 835.33 ± 0.3 | 0.911 ± 0.016 | 0.775 ± 0.015 | 0.67 ± 0.015 | 0.588 ± 0.014
x1 = 0.75 | 867.44 ± 0.3 | 857.64 ± 0.3 | 847.75 ± 0.3 | 837.75 ± 0.31 | 0.912 ± 0.016 | 0.78 ± 0.015 | 0.675 ± 0.015 | 0.594 ± 0.014
x1 = 0.8 | 869.73 ± 0.31 | 859.93 ± 0.31 | 850.04 ± 0.31 | 840.05 ± 0.32 | 0.916 ± 0.016 | 0.782 ± 0.015 | 0.68 ± 0.015 | 0.601 ± 0.014
x1 = 0.85 | 871.89 ± 0.32 | 862.08 ± 0.32 | 852.2 ± 0.32 | 842.22 ± 0.33 | 0.926 ± 0.016 | 0.791 ± 0.015 | 0.688 ± 0.015 | 0.609 ± 0.014
x1 = 0.9 | 873.95 ± 0.33 | 864.14 ± 0.33 | 854.28 ± 0.33 | 844.34 ± 0.34 | 0.937 ± 0.016 | 0.799 ± 0.015 | 0.697 ± 0.015 | 0.618 ± 0.014
x1 = 0.95 | 875.87 ± 0.34 | 866.09 ± 0.34 | 856.25 ± 0.35 | 846.32 ± 0.35 | 0.939 ± 0.016 | 0.804 ± 0.015 | 0.703 ± 0.015 | 0.625 ± 0.014
x1 = 1 | 877.72 ± 0.36 | 867.91 ± 0.36 | 858.07 ± 0.36 | 848.17 ± 0.36 | 0.94 ± 0.016 | 0.804 ± 0.015 | 0.704 ± 0.015 | 0.627 ± 0.014
